Source: US8952024B2, “Herbicidal pyrimidone derivatives” (E I du Pont de Nemours and Company, priority 2009, dated 2015)

What was measured:
Assay in all cases: Test D pre-/postemergence plant response
Format in all cases: in vivo
[1] = tested on: sandbur (southern sandbur, Cenchrus echinatus)
Outline: (§1)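 Visual 0–100 scoring (100 = complete control) versus untreated controls after 14–21 greenhouse days. Compounds, formulated in surfactant-containing non-phytotoxic solvent, were applied preemergence to seeded loam/sand and postemergence to 2–18 cm plants (1–4 leaves).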

[2] = tested on: dayflower (Virginia (VA) dayflower, Commelina virginica)
Outline: as §1

[3] = tested on: signalgrass (broadleaf signalgrass, Brachiaria platyphylla)
Outline: as §1

[4] = tested on: bluegrass (annual bluegrass, Poa annua)
Outline: as §1

[5] = tested on: black mustard (Brassica nigra)
Outline: as §1

[6] = tested on: goosegrass (Eleusine indica)
Outline: as §1

[7] = tested on: mallow (common mallow, Malva sylvestris)
Outline: as §1

[8] = tested on: nutsedge (purple nutsedge, Cyperus rotundus)
Outline: as §1

[9] = tested on: morningglory (pitted morningglory, Ipomoea lacunosa)
Outline: as §1

[10] = tested on: bermudagrass (Cynodon dactylon)
Outline: as §1

[11] = tested on: itchgrass (Rottboellia cochinchinensis)
Outline: as §1

[12] = tested on: groundsel (common groundsel, Senecio vulgaris); details: Postemergence
Outline: as §1

[13] = tested on: Surinam grass (Brachiaria decumbens)
Outline: as §1

[14] = tested on: field bindweed (Convolvulus arvensis)
Outline: as §1

[15] = tested on: quackgrass (Elytrigia repens)
Outline: as §1

[16] = tested on: sowthistle (common sowthistle, Sonchus oleraceous)
Outline: as §1

[17] = tested on: green foxtail (Setaria viridis)
Outline: as §1

[18] = tested on: large crabgrass (Digitaria sanguinalis)
Outline: as §1

[19] = Postemergence, 31 g ai/ha, scale 0 to 100
[20] = Postemergence, 62 g ai/ha, scale 0 to 100 (0 no effect, 100 complete control)
[21] = Postemergence, 125 g ai/ha, scale 0 to 100 (0 no effect, 100 complete control)
[22] = Postemergence, 16 g ai/ha, scale 0 to 100
[23] = Preemergence, 16 g ai/ha, scale 0 to 100, 0 no effect, 100 complete control
[24] = Preemergence, 31 g ai/ha, scale 0 to 100 (0 no effect, 100 complete control)
[25] = Preemergence, 125 g ai/ha, scale 0 to 100
[26] = Preemergence, 62 g ai/ha, scale 0 to 100
[27] = Postemergence, 31 g ai/ha, scale 0 to 100 (0 no effect, 100 complete control)
[28] = 125 g ai/ha, scale 0 to 100 (0 no effect, 100 complete control)

In the case of COCCn1c(-c2ccccc2)ncc(C(=O)C2=C(O)CCCC2=O)c1=O [Compound 85], the “Plant response rating, Sandbur” value [1, 19] is reported as 50, the “Plant response rating, Sandbur” value [1, 20] is reported as 65 and the “Plant response rating, Sandbur” value [1, 21] is reported as 95. For the same compound, the “Plant response rating, Sandbur” value [1, 22] was 10, the “Plant response rating, Sandbur” value [1, 23] was 5 and the “Plant response rating, Sandbur” value [1, 24] was 5. The “Plant response rating, Sandbur” value [1, 25] was 98, the “Plant response rating, Dayflower, VA” value [2, 19] was 30 and the “Plant response rating, Dayflower, VA” value [2, 20] was 60. For the same compound, the “Plant response rating, Dayflower, VA” value [2, 21] was 80, the “Plant response rating, Dayflower, VA” value [2, 22] was 20 and the “Plant response rating, Dayflower, VA” value [2, 23] was 5. The “Plant response rating, Dayflower, VA” value [2, 24] was 10, the “Plant response rating, Dayflower, VA” value [2, 26] was 90 and the “Plant response rating, Dayflower, VA” value [2, 25] was 95. For the same compound, the “Plant response rating, Signalgrass” value [3, 19] was 35, the “Plant response rating, Signalgrass” value [3, 20] was 60 and the “Plant response rating, Signalgrass” value [3, 21] was 75. The “Plant response rating, Signalgrass” value [3, 22] was 20, the “Plant response rating, Signalgrass” value [3, 23] was 5 and the “Plant response rating, Signalgrass” value [3, 24] was 60. The “Plant response rating, Signalgrass” value [3, 25] was 95, the “Plant response rating, Bluegrass” value [4, 27] was 0 and the “Plant response rating, Bluegrass” value [4, 20] was 5. For the same compound, the “Plant response rating, Bluegrass” value [4, 21] was 5, the “Plant response rating, Bluegrass” value [4, 22] was 0 and the “Plant response rating, Bluegrass” value [4, 23] was 0. For the same compound, the “Plant response rating, Bluegrass” value [4, 24] was 0, the “Plant response rating, Bluegrass” value [4, 26] was 0 and the “Plant response rating, Bluegrass” value [4, 25] was 15. The “Plant response rating, Black Mustard” value [5, 27] was 60, the “Plant response rating, Black Mustard” value [5, 20] was 75 and the “Plant response rating, Black Mustard” value [5, 21] was 85. The “Plant response rating, Black Mustard” value [5, 22] was 35, the “Plant response rating, Black Mustard” value [5, 23] was 50 and the “Plant response rating, Black Mustard” value [5, 24] was 60. The “Plant response rating, Black Mustard” value [5, 26] was 98, the “Plant response rating, Black Mustard” value [5, 25] was 100 and the “Plant response rating, Goosegrass” value [6, 19] was 65. The “Plant response rating, Goosegrass” value [6, 20] was 75, the “Plant response rating, Goosegrass” value [6, 21] was 75 and the “Plant response rating, Goosegrass” value [6, 22] was 40. For the same compound, the “Plant response rating, Goosegrass” value [6, 23] was 65, the “Plant response rating, Goosegrass” value [6, 24] was 75 and the “Plant response rating, Goosegrass” value [6, 26] was 75. For the same compound, the “Plant response rating, Goosegrass” value [6, 25] was 98, the “Plant response rating, Mallow” value [7, 19] was 65 and the “Plant response rating, Mallow” value [7, 20] was 70. For the same compound, the “Plant response rating, Mallow” value [7, 21] was 75, the “Plant response rating, Mallow” value [7, 22] was 60 and the “Plant response rating, Mallow” value [7, 23] was 80. For the same compound, the “Plant response rating, Mallow” value [7, 26] was 95, the “Plant response rating, Mallow” value [7, 25] was 98 and the “Plant response rating, Nutsedge, Purple” value [8, 19] was 30. For the same compound, the “Plant response rating, Nutsedge, Purple” value [8, 20] was 50, the “Plant response rating, Nutsedge, Purple” value [8, 21] was 65 and the “Plant response rating, Nutsedge, Purple” value [8, 22] was 5. For the same compound, the “Plant response rating, Nutsedge, Purple” value [8, 23] was 70, the “Plant response rating, Nutsedge, Purple” value [8, 24] was 75 and the “Plant response rating, Nutsedge, Purple” value [8, 26] was 95. For the same compound, the “Plant response rating, Nutsedge, Purple” value [8, 25] was 95, the “Plant response rating, Morningglory” value [9, 19] was 70 and the “Plant response rating, Morningglory” value [9, 20] was 75. For the same compound, the “Plant response rating, Morningglory” value [9, 21] was 90, the “Plant response rating, Morningglory” value [9, 22] was 70 and the “Plant response rating, Morningglory” value [9, 24] was 70. The “Plant response rating, Morningglory” value [9, 26] was 90, the “Plant response rating, Morningglory” value [9, 25] was 100 and the “Plant response rating, Bermudagrass” value [10, 27] was 75. The “Plant response rating, Bermudagrass” value [10, 20] was 80, the “Plant response rating, Bermudagrass” value [10, 21] was 90 and the “Plant response rating, Bermudagrass” value [10, 22] was 65. For the same compound, the “Plant response rating, Bermudagrass” value [10, 23] was 80, the “Plant response rating, Bermudagrass” value [10, 24] was 100 and the “Plant response rating, Bermudagrass” value [10, 26] was 100. For the same compound, the “Plant response rating, Bermudagrass” value [10, 25] was 100, the “Plant response rating, Itchgrass” value [11, 19] was 35 and the “Plant response rating, Itchgrass” value [11, 20] was 65. For the same compound, the “Plant response rating, Itchgrass” value [11, 21] was 70, the “Plant response rating, Itchgrass” value [11, 22] was 30 and the “Plant response rating, Itchgrass” value [11, 23] was 10. The “Plant response rating, Itchgrass” value [11, 24] was 15, the “Plant response rating, Itchgrass” value [11, 26] was 35 and the “Plant response rating, Itchgrass” value [11, 25] was 50. The “Plant response rating, Groundsel” value ([12]; 31 g ai/ha, scale 0 to 100) was 100, the “Plant response rating, Groundsel” value ([12]; 62 g ai/ha, scale 0 to 100 (0 no effect, 100 complete control)) was 100 and the “Plant response rating, Groundsel” value [12, 28] was 100. The “Plant response rating, Groundsel” value ([12]; 16 g ai/ha, scale 0 to 100) was 100, the “Plant response rating, Surinam Grass” value [13, 19] was 75 and the “Plant response rating, Surinam Grass” value [13, 20] was 75. For the same compound, the “Plant response rating, Surinam Grass” value [13, 21] was 85, the “Plant response rating, Surinam Grass” value [13, 23] was 98 and the “Plant response rating, Surinam Grass” value [13, 24] was 100. The “Plant response rating, Surinam Grass” value [13, 25] was 100, the “Plant response rating, Field Bindweed” value [14, 19] was 75 and the “Plant response rating, Field Bindweed” value [14, 20] was 75. For the same compound, the “Plant response rating, Field Bindweed” value [14, 21] was 75, the “Plant response rating, Field Bindweed” value [14, 22] was 65 and the “Plant response rating, Field Bindweed” value [14, 23] was 50. The “Plant response rating, Field Bindweed” value [14, 24] was 70, the “Plant response rating, Field Bindweed” value [14, 26] was 70 and the “Plant response rating, Field Bindweed” value [14, 25] was 98. For the same compound, the “Plant response rating, Quackgrass” value [15, 19] was 0, the “Plant response rating, Quackgrass” value [15, 20] was 15 and the “Plant response rating, Quackgrass” value [15, 21] was 20. For the same compound, the “Plant response rating, Quackgrass” value [15, 22] was 0, the “Plant response rating, Quackgrass” value [15, 23] was 0 and the “Plant response rating, Quackgrass” value [15, 24] was 0. The “Plant response rating, Quackgrass” value [15, 25] was 20, the “Plant response rating, Sowthistle” value [16, 19] was 100 and the “Plant response rating, Sowthistle” value [16, 20] was 100. The “Plant response rating, Sowthistle” value [16, 21] was 100, the “Plant response rating, Sowthistle” value [16, 22] was 100 and the “Plant response rating, Sowthistle” value [16, 23] was 100. The “Plant response rating, Sowthistle” value [16, 24] was 100, the “Plant response rating, Sowthistle” value [16, 25] was 100 and the “Plant response rating, Foxtail, Green” value [17, 19] was 25. The “Plant response rating, Foxtail, Green” value [17, 20] was 35, the “Plant response rating, Foxtail, Green” value [17, 21] was 65 and the “Plant response rating, Foxtail, Green” value [17, 22] was 20. For the same compound, the “Plant response rating, Foxtail, Green” value [17, 23] was 0, the “Plant response rating, Foxtail, Green” value [17, 24] was 5 and the “Plant response rating, Foxtail, Green” value [17, 26] was 40. The “Plant response rating, Foxtail, Green” value [17, 25] was 70, the “Plant response rating, Crabgrass, Large” value [18, 19] was 60 and the “Plant response rating, Crabgrass, Large” value [18, 20] was 75. For the same compound, the “Plant response rating, Crabgrass, Large” value [18, 21] was 75, the “Plant response rating, Crabgrass, Large” value [18, 22] was 60 and the “Plant response rating, Crabgrass, Large” value [18, 23] was 95. For the same compound, the “Plant response rating, Crabgrass, Large” value [18, 24] was 98, the “Plant response rating, Crabgrass, Large” value [18, 26] was 100 and the “Plant response rating, Crabgrass, Large” value [18, 25] was 100.

COCCn1c(-c2ccsc2)ncc(C(=O)C2=C(O)C3CCC(C3)C2=O)c1=O (stereo not drawn) [Compound 228] was tested, and the “Plant response rating, Sandbur” value [1, 21] was 5, the “Plant response rating, Dayflower, VA” value [2, 21] was 85 and the “Plant response rating, Signalgrass” value [3, 21] was 20. For the same compound, the “Plant response rating, Bluegrass” value [4, 27] was 0, the “Plant response rating, Bluegrass” value [4, 21] was 5 and the “Plant response rating, Black Mustard” value [5, 27] was 20. The “Plant response rating, Black Mustard” value [5, 21] was 50, the “Plant response rating, Goosegrass” value [6, 21] was 70 and the “Plant response rating, Mallow” value [7, 21] was 65. The “Plant response rating, Nutsedge, Purple” value [8, 21] was 15, the “Plant response rating, Morningglory” value [9, 21] was 50 and the “Plant response rating, Bermudagrass” value [10, 27] was 70. The “Plant response rating, Bermudagrass” value [10, 21] was 70, the “Plant response rating, Itchgrass” value [11, 21] was 65 and the “Plant response rating, Groundsel” value [12, 28] was 100. For the same compound, the “Plant response rating, Surinam Grass” value [13, 21] was 70, the “Plant response rating, Field Bindweed” value [14, 21] was 70 and the “Plant response rating, Quackgrass” value [15, 21] was 5. The “Plant response rating, Sowthistle” value [16, 21] was 98, the “Plant response rating, Foxtail, Green” value [17, 21] was 80 and the “Plant response rating, Crabgrass, Large” value [18, 21] was 75.
